Measurements as given in the supplement of paper PMC11061612.

Tests used:
Test in all cases: combination Emax (second highest fraction inhibited in the dose matrix, 72 h); higher = more inhibition; extreme values may be limits of the assay
[1] = system: MDA-MB-468 (Breast Carcinoma)
Outline: (§1)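 Cell lines in DMEM/F12 or RPMI with 10% FBS were plated in 1536-well plates, held 24 hours at 37°C, 5% CO2, then given two-drug dose matrices for 72 hours (DMSO typically 0.2%). Viability was read by CellTiter-Glo 2.0 luminescence and scaled as inhibition from 0 (vehicle wells) to 1 (blank wells). Combination Emax is the second-highest inhibition in the matrix; Bliss excess is observed combination effect minus expected EA + EB − EA·EB, EA and EB being single-agent effects.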

[2] = system: HCC-15 (Squamous Cell Lung Carcinoma)
Outline: as §1

COLO-829 (Melanoma) = system: COLO-829 (Melanoma)
Outline: as §1

[3] = system: CAL-51 (Breast Carcinoma)
Outline: as §1

NCI-H2795 (Mesothelioma) = system: NCI-H2795 (Mesothelioma)
Outline: as §1

[4] = system: RT-112 (Bladder Carcinoma)
Outline: as §1

NCI-H28 (Mesothelioma) = system: NCI-H28 (Mesothelioma)
Outline: as §1

[5] = system: PCI-30 (Head and Neck Carcinoma)
Outline: as §1

NCI-H2461 (Mesothelioma) = system: NCI-H2461 (Mesothelioma)
Outline: as §1

[6] = system: KYSE-410 (Esophageal Squamous Cell Carcinoma)
Outline: as §1

[7] = system: EN (Endometrial Carcinoma)
Outline: as §1

[8] = system: LoVo (Colorectal Carcinoma)
Outline: as §1

[9] = system: UMC-11 (Other Solid Carcinomas)
Outline: as §1

[10] = system: TE-4 (Esophageal Squamous Cell Carcinoma)
Outline: as §1

HMV-II (Melanoma) = system: HMV-II (Melanoma)
Outline: as §1

[11] = system: HO-1-u-1 (Oral Cavity Carcinoma)
Outline: as §1

[12] = system: SUP-T1 (T-Lymphoblastic Leukemia)
Outline: as §1

[13] = system: Hs-633T (Other Solid Carcinomas)
Outline: as §1

SH-4 (Melanoma) = system: SH-4 (Melanoma)
Outline: as §1

[14] = system: SU-DHL-6 (B-Cell Non-Hodgkin's Lymphoma)
Outline: as §1

Structure (SMILES)	combination Emax [1]	combination Emax [2]	combination Emax (COLO-829 (Melanoma))	combination Emax [3]	combination Emax (NCI-H2795 (Mesothelioma))	combination Emax [4]	combination Emax (NCI-H28 (Mesothelioma))	combination Emax [5]	combination Emax (NCI-H2461 (Mesothelioma))	combination Emax [6]	combination Emax [7]	combination Emax [8]	combination Emax [9]	combination Emax [10]	combination Emax (HMV-II (Melanoma))	combination Emax [11]	combination Emax [12]	combination Emax [13]	combination Emax (SH-4 (Melanoma))	combination Emax [14]
CC(=O)Nc1cccc(-n2c(=O)n(C3CC3)c(=O)c3c(Nc4ccc(I)cc4F)n(C)c(=O)c(C)c32)c1 [Trametinib] + Cc1nc(-c2cn3c(n2)-c2ccc(-c4cnn(C(C)(C)C(N)=O)c4)cc2OCC3)n(C(C)C)n1 [Taselisib] (first compound max 1 µM, 7x7, partner max 10 µM)	0.799	0.987	0.942	0.886	1	0.884	0.632	0.627	0.587	0.993	0.681	0.708	0.355	1	0.926	0.987	0.596	0.917	0.999	1
CC1(C)CCC(CN2CCN(c3ccc(C(=O)NS(=O)(=O)c4ccc(NCC5CCOCC5)c([N+](=O)[O-])c4)c(Oc4cnc5[nH]ccc5c4)c3)CC2)=C(c2ccc(Cl)cc2)C1 [Venetoclax] + CCN(CCO)CCCOc1ccc2c(Nc3cc(CC(=O)Nc4cccc(F)c4)[nH]n3)ncnc2c1 [AZD2811] (first compound max 1 µM, 7x7, partner max 1 µM)	0.624	0.781	0.127	0.349	0.422	0.458	0.255	0.229	0.422	0.191	0.399	0.197	0.91	0.191	0.263	0.324	0.614	0.217	0.241	0.877
CN(CCO)CC[C@H](CSc1ccccc1)Nc1ccc(S(=O)(=O)NC(=O)c2ccc(N3CCC([C@@H](O)c4ccccc4-c4ccc(Cl)cc4)CC3)cc2)cc1S(=O)(=O)C(F)(F)F [AZD4320] + CCN(CCO)CCCOc1ccc2c(Nc3cc(CC(=O)Nc4cccc(F)c4)[nH]n3)ncnc2c1 [AZD2811] (first compound max 1 µM, 7x7, partner max 1 µM)	0.885	0.966	0.196	0.615	0.284	0.913	0.416	0.284	0.174	0.17	0.381	0.317	0.93	0.0998	0.18	0.824	0.545	0.54	0.181	0.958
COc1cccc(OCCCN)c1-c1cc(Nc2cnc(C#N)cn2)n[nH]1 [Prexasertib] + CCc1c2c(nc3ccc(O)cc13)-c1cc3c(c(=O)n1C2)COC(=O)[C@]3(O)CC [SN-38] (first compound max 1 µM, 7x7, partner max 0.3 µM)	0.817	0.857	0.662	0.901	0.813	1	0.616	0.966	0.705	0.705	0.75	0.847	0.959	0.881	0.669	0.996	0.819	0.814	0.684	0.991
CN(CCO)CC[C@H](CSc1ccccc1)Nc1ccc(S(=O)(=O)NC(=O)c2ccc(N3CCC([C@@H](O)c4ccccc4-c4ccc(Cl)cc4)CC3)cc2)cc1S(=O)(=O)C(F)(F)F [AZD4320] + Cc1cc2ncnn2cc1Nc1ncc2c(n1)n(C1CCOCC1)c(=O)n2C [AZD7648] (first compound max 1 µM, 7x7, partner max 10 µM)	0.747	0.936	0.0921	0.193	0.43	0.293	0.15	0.178	0.293	0.134	0.304	0.565	0.712	0.173	0.18	0.325	0.416	0.614	0.16	0.97
Cc1cc2ncnn2cc1Nc1ncc2c(n1)n(C1CCOCC1)c(=O)n2C [AZD7648] + C[C@@H]1COCCN1C2=NC(=NC(=C2)C3(CC3)[S@](=N)(=O)C)C4=C5C=CNC5=NC=C4 [AZD6738] (first compound max 10 µM, 7x7, partner max 10 µM)	0.513	0.181	0.286	0.923	0.609	0.93	0.538	0.686	0.71	0.363	0.62	0.813	0.537	0.531	0.442	0.845	0.744	0.855	0.335	0.613
CCN(CCO)CCCOc1ccc2c(Nc3cc(CC(=O)Nc4cccc(F)c4)[nH]n3)ncnc2c1 [AZD2811] + O=C(c1cc(Cc2n[nH]c(=O)c3ccccc23)ccc1F)N1CCN(C(=O)C2CC2)CC1 [Olaparib] (first compound max 1 µM, 7x7, partner max 10 µM)	0.413	0.755	0.254	0.314	0.395	0.424	0.229	0.265	0.278	0.165	0.434	0.354	0.75	0.145	0.203	0.274	0.528	0.441	0.265	0.365
COc1cccc(OCCCN)c1-c1cc(Nc2cnc(C#N)cn2)n[nH]1 [Prexasertib] + C=CCn1c(=O)c2cnc(Nc3ccc(N4CCN(C)CC4)cc3)nc2n1-c1cccc(C(C)(C)O)n1 [AZD1775] (first compound max 1 µM, partner max 1 µM)	0.645	0.542	0.237	0.95	0.804	1	0.659	0.894	0.745	0.584	0.859	0.894	0.936	0.813	0.708	0.986	0.848	0.973	0.742	0.955
CS(=O)(=O)CCNCc1ccc(-c2ccc3ncnc(Nc4ccc(OCc5cccc(F)c5)c(Cl)c4)c3c2)o1 [Lapatinib] + C[C@@H](Oc1cc(-c2cnn(C3CCNCC3)c2)cnc1N)c1c(Cl)ccc(F)c1Cl [Crizotinib] (first compound max 10 µM, 7x7, partner max 10 µM)	0.959	0.945	0.711	0.691	0.949	0.941	0.622	0.366	0.91	0.934	0.559	0.708	0.703	1	0.912	0.961	0.875	0.934	0.883	0.983
Cc1cc2ncnn2cc1Nc1ncc2c(n1)n(C1CCOCC1)c(=O)n2C [AZD7648] + CCN(CCO)CCCOc1ccc2c(Nc3cc(CC(=O)Nc4cccc(F)c4)[nH]n3)ncnc2c1 [AZD2811] (first compound max 10 µM, 7x7, partner max 1 µM)	0.492	0.703	0.196	0.446	0.45	0.49	0.345	0.318	0.468	0.187	0.519	0.529	0.701	0.137	0.37	0.449	0.641	0.431	0.345	0.51
CC1(C)CCC(CN2CCN(c3ccc(C(=O)NS(=O)(=O)c4ccc(NCC5CCOCC5)c([N+](=O)[O-])c4)c(Oc4cnc5[nH]ccc5c4)c3)CC2)=C(c2ccc(Cl)cc2)C1 [Venetoclax] + C=CCn1c(=O)c2cnc(Nc3ccc(N4CCN(C)CC4)cc3)nc2n1-c1cccc(C(C)(C)O)n1 [AZD1775] (first compound max 1 µM, partner max 1 µM)	0.521	0.469	0.235	0.851	0.658	0.978	0.336	0.736	0.731	0.422	0.653	0.741	0.487	0.555	0.484	0.949	0.812	0.719	0.573	0.941
NC1(C(=O)N[C@@H](CCO)c2ccc(Cl)cc2)CCN(c2ncnc3[nH]ccc23)CC1 [Capivasertib] + COc1nnc2ccc(N3CCC(c4ccc(OCCN5CCN(C)C(=O)[C@H]5C)cc4)CC3)nn12 [AZD5153] (first compound max 10 µM, 7x7, partner max 1 µM)	0.666	0.626	0.272	0.651	0.398	0.383	0.453	0.366	0.526	0.56	0.525	0.642	0.768	0.851	0.588	0.91	0.789	0.519	0.775	1
